Results from US20040219232A1, “Methods and compounds for treating malabsorption diseases and inflammatory conditions of the gastrointestinal tract” (Zengen, Inc., priority 2003, published 2004).
Entries after “also recorded” stand apart in the source; their conditions may differ. Where no end group is shown, it is not given here. [ ]: non-standard residue; d: D form. dNle = CCCC[C@@H](N)C(=O)O

Experiments:
[1] = compared with L-form tripeptide; cited from earlier work
[2] = Potency/efficacy of α-MSH fragments and derivatives compared to parent α-MSH (anti-inflammatory and/or antipyretic properties); details: discovered by the inventors; no method or data given
Excerpt: It is contemplated that derivatives of α-MSH will have analogous function. It is understood that derivatives of α-MSH means functionally equivalent peptides. […] Thus, α-MSH derivative would include, among others, the partial segments of the 13 amino acid peptide. Specifically, α-MSH is composed of the following sequence of amino acids: SYSMEHFRWGKPV (SEQ ID. NO. 1). […] These derivatives of the parent α-MSH are functional equivalents.

[3] = has been shown; no method given; cited from earlier work
[4] = test system: IL-1β, IL-6 and TNF-α production by celiac mucosa; assay: Spontaneous (non-stimulated) cytokine production by duodenal mucosa specimens incubated 24 h in vitro, with or without synthetic α-MSH; format: cell-based, human; details: α-MSH 10^−5 M in incubation medium, no gliadin
Excerpt: (§1) Four biopsy specimens from the distal duodenum were obtained during upper gastrointestinal endoscopy. Two of such specimens were fixed in 10% formalin and paraffin embedded for standard histological examination. The remaining two specimens from each subject were available for this research and were allocated for either 1) RT-PCR and immunohistochemical studies (N=20: 9 celiac, 7 celiac on diet, 4 normal); 2) cytokine production in vitro in the presence or absence of α-MSH(N=22: 11 celiac, 6 celiac on diet, 5 normal); or 3) cytokine production in vitro after gliadin stimulation in the presence or absence of α-MSH(N=25: 14 celiac, 6 celiac on diet, 5 normal).
(§2) A series of 47 specimen pairs were used to evaluate cytokine production by celiac mucosa in vitro and the influence of α-MSH on such production. […]
(§3) α-MSH was measured using a double-antibody radioimmunoassay (RIA) method (Eurodiagnostica, Malmo, Sweden); the sensitivity calculated from a decrease in binding of 2 SD in the zero standard was 4.8 pg/ml and the cross-reactivity with other POMC peptides (ACTH [1-24], ACTH [1-39], β-MSH, γ-MSH) is <0.002%. IL-1β, IL-6, and TNF-α were determined using commercial ELISA methods (Amersham Pharmacia Biotech, Little Chalfont, UK).
(§4) Values were expressed as means±SEM. […]

[5] = test system: IL-6 production by gliadin-stimulated duodenal mucosa; assay: Gliadin-stimulated cytokine production by duodenal mucosa specimens incubated 24 h in vitro, with or without synthetic α-MSH; format: cell-based, human; details: co-incubation with α-MSH 10^−5 M, controls, untreated celiac and treated celiac patients (all groups), ELISA
Excerpt: as §1, §2, §3, §4

fever = details: compared with α-MSH; cited from earlier work

Substance: Ac-[D-K11]-α-MSH 11-13-NH2
- Potency relative to the L-form of the tripeptide α-MSH (11-13) [1]: same general potency

Substance: His-DNle-Arg-Trp-Phe-Lys-Pro-Val (H[dNle]RWFKPV)
- Potency over the parent α-MSH and its derivatives [2]: increased potency

Substance: KPV
- Potency/efficacy compared to parent α-MSH [3]: as potent or more potent than the parent α-MSH

Substance: SYSMEHFRWGKPV [α-MSH, 13 amino acid peptide produced by post-translational processing of pro-opiomelanocortin; synthetic peptide used in the tests]
- Non-stimulated 24 h production of IL-1β, IL-6 and TNF-α by celiac mucosa after addition of α-MSH [4]: no change
- IL-6 production/release in supernatants of gliadin-stimulated duodenal specimens [5]: significantly decreased; also recorded: substantial reduction; also recorded: significantly reduced; also recorded: statistically significant inhibition

Substance: [Nle^4,D-Phe^7]-α-MSH
- Potency in reducing fever relative to the parent peptide α-MSH (fever): approximately ten times more potent
